Experimental data as given in patent US10118954B2, “Apelin analogues” (University of Ulster, priority 2014, dated 2018).

Assays:
[1] = Degradation of apelin peptides by plasma from fasted normal NIH Swiss mice (rp-HPLC, MALDI-TOF MS); assay type: in vitro ADME
Outline: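 Apelin peptides were incubated with plasma from fasted normal NIH Swiss mice for 4 h, and the reaction was stopped with TFA. Products were separated by C-8 rp-HPLC with detection at 214 nm. Peak fractions were identified by MALDI-TOF MS, giving fragment molecular weights and retention times.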

[2] = tested on: NIH Swiss mice fed a high-fat diet for 150 days; assay: Acute and delayed i.p. glucose tolerance test, blood glucose and plasma insulin; assay type: in vivo; details: fatty acid derived agonists
Outline: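 Diet-induced obese-diabetic mice (high-fat diet 150 days, 18 h fasted) received i.p. glucose (18 mmol/kg) alone or with apelin analogues (25 nmol/kg), or analogues given 2, 8 or 16 h beforehand. Tail blood glucose and plasma insulin sampled at 0, 15, 30, 60, 105 min; n=8, mean±SEM.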

[3] = NIH Swiss, mouse, plasma, pH 7.4
[4] = 16 h delayed i.p. glucose tolerance test, 25 nmol/kg
[5] = acute i.p. glucose tolerance test, 25 nmol/kg

CCCCCCCCCCCCCCCC(=O)N[C@@H](CCC(=O)NCCCC[C@H](NC(=O)[C@H](Cc1c[nH]cn1)NC(=O)[C@H](CO)NC(=O)[C@H](CC(C)C)NC(=O)[C@H](CCCNC(=N)N)NC(=O)[C@@H]1CCCN1C(=O)[C@H](CCCNC(=N)N)NC(=O)[C@@H]1CCC(=O)N1)C(=O)NCC(=O)N1CCC[C@H]1C(=O)N[C@@H](CCSC)C(=O)N1CCC[C@H]1C(=O)N[C@@H](Cc1ccccc1)C(N)=O)C(=O)O [pGlu(Lys^8GluPAL)apelin-13-amide]
Rank order of stability [1]: =1 | Half-life (t1/2) ([1]; NIH Swiss, mouse, plasma, 263 µg/mL, pH 7.4): >24 h | half-life at 263 µg/mL [1, 3]: > 24 h | remaining at 4 h, 263 µg/mL [1, 3]: 100% | Rank order on basis of anti-hyperglycaemic efficacy ([2]; 16 h delay): 1 | Blood glucose as percent of glucose-alone control (lower = stronger glucose lowering) [2, 4]: 57% (**) | Insulin secretion, where glucose alone = 100% [2, 4]: 150% (***) | Rank order on basis of anti-hyperglycaemic efficacy ([2]; acute): 1 | Glucose lowering, where glucose alone = 100% [2, 5]: 79% | Insulin secretion, where glucose alone = 100% [2, 5]: 119% (*)
